Data from US8461328B2, “Tricyclic heterocyclic compounds, compositions and methods of use thereof” (Genentech, Inc., priority 2010, dated 2013).

Key:
Type in all cases: biochemical
JAK1 = molecular target: T1, JAK1 (Homo sapiens, UniProt P23458); assay: JAK1 inhibition (Table 4); settings: read-out: JAK1 Ki
T1 construct: made in house; host or cells: SF9 insect cells (baculovirus)

JAK3 = molecular target: T2, JAK3 (Homo sapiens, UniProt P52333); assay: JAK3 inhibition (Table 4); settings: read-out: JAK3 Ki
T2 construct: made in house; host or cells: SF9 insect cells (baculovirus)
T2 sequence (P52333 783-1124): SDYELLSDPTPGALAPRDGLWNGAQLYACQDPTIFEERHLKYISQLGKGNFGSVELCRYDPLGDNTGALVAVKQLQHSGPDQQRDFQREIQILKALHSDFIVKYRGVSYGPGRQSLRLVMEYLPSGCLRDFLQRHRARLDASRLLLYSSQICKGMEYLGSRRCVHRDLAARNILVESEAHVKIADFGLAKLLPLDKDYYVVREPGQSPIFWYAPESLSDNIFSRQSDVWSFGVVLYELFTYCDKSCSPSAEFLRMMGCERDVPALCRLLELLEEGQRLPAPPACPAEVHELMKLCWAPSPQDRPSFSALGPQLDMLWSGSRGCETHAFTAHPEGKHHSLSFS

JAK2 = molecular target: T3, JAK2 (Homo sapiens, UniProt O60674); assay: JAK2 inhibition (Table 4); settings: read-out: JAK2 Ki
T3 construct: made in house; host or cells: SF9 insect cells (baculovirus)
T3 sequence (O60674 812-1132): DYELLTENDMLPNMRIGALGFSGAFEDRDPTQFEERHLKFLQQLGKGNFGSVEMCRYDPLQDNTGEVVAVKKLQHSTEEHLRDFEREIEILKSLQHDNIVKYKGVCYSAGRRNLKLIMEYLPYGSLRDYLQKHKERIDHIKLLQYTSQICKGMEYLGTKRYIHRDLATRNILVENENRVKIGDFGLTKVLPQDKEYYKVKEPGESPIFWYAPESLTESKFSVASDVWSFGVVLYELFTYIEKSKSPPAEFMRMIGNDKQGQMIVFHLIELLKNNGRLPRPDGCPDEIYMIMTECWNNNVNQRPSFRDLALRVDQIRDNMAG

TYK2 = molecular target: T4, TYK2 (Homo sapiens, UniProt P29597); assay: TYK2 inhibition (Table 4)
T4 construct: made in house; host or cells: SF9 insect cells (baculovirus)
T4 sequence (P29597 873-1187): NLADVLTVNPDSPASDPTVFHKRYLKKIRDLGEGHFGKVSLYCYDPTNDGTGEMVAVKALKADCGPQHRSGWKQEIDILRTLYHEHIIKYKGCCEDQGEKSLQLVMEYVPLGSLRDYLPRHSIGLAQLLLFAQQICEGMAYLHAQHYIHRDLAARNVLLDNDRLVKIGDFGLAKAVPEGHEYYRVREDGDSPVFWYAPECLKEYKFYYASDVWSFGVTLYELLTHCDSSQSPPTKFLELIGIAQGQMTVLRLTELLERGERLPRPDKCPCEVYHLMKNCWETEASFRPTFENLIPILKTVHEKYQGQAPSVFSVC

T1 sequence (P23458 852-1154): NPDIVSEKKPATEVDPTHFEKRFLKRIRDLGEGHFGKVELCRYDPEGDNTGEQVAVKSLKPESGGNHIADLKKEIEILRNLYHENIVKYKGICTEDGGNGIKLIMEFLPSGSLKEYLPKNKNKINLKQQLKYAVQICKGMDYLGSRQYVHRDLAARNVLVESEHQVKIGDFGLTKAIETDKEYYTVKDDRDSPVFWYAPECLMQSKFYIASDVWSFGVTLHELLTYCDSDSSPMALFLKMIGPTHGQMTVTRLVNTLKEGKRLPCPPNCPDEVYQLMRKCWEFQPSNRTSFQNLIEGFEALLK

Row | Structure (SMILES) | Ki (JAK1) [nM] | Ki (JAK3) [nM] | Ki (JAK2) [nM] | Ki (TYK2) [nM]
1 | c1ccc(CN2[C@@H]3CC[C@H]2C[C@H](n2cnc4cnc5[nH]ccc5c42)C3)cc1 [Example 81] | 23 | 297 | 15.8 | 222
2 | O=C(NC1CCC(n2cnc3cnc4[nH]ccc4c32)CC1)N1CCC1 (centres unmarked) [Example 746, azetidine-1-carboxylic acid [4-(6H-1,3,5,6-tetraaza-as-indacen-1-yl)-cyclohexyl]-amide] | 13.1 | 183 | 21.3 | 75.4
3 | c1ccc(N2CCC[C@@H](n3cnc4cnc5[nH]ccc5c43)C2)cc1 [Example 12, 1-((R)-1-Phenyl-piperidin-3-yl)-1,6-dihydro-1,2,3,5,6-tetraaza-as-indacene] | 31 | 17.2 | 35.7 | 170
4 | NC1CCCC(n2cnc3cnc4[nH]ccc4c32)C1 (single isomer, unassigned) [Example 366, 3-(6H-1,3,5,6-Tetraaza-as-indacen-1-yl)-cyclohexylamine] | 45.9 | 381 | 69.8 | 299
5 | O=C1CN(Cc2nc3cnc4[nH]ccc4c3n2C2CCOCC2)CCN1 [Example 473, 4-[1-(Tetrahydro-pyran-4-yl)-1,6-dihydro-1,3,5,6-tetraaza-as-indacen-2-ylmethyl]-piperazin-2-one] | 447 | 2010 | 1700 | 1700
6 | OC[C@]1(O)CC[C@@H](n2nnc3cnc4[nH]ccc4c32)CC1 [Example 716, Cis-1-Hydroxymethyl-4-(6H-1,2,3,5,6-pentaaza-as-indacen-1-yl)-cyclohexanol] | 10.6 | 167 | 23.3 | 74.3
7 | O=C([C@@H]1CCCN1)N1CCC(n2cnc3cnc4[nH]ccc4c32)CC1 [Example 249, (S)-Pyrrolidin-2-yl-[4-(6H-1,3,5,6-tetraaza-as-indacen-1-yl)-piperidin-1-yl]-methanone] | 48.6 | 1180 | 365 | 1110
8 | O=C([C@H]1CCCN1)N1CCC(n2cnc3cnc4[nH]ccc4c32)CC1 [Example 248, (R)-Pyrrolidin-2-yl-[4-(6H-1,3,5,6-tetraaza-as-indacen-1-yl)-piperidin-1-yl]-methanone] | 216 | 1160 | 342 | 3190
9 | O=C(NCCc1nc2cnc3[nH]ccc3c2n1[C@@H]1CCCOC1)C1CC1 [Example 863, (R)-Cyclopropanecarboxylic acid {2-[1-(tetrahydro-pyran-3-yl)-1,6-dihydro-1,3,5,6-tetraaza-as-indacen-2-yl]-ethyl}-amide] | 67.2 | 1240 | 828 | 2020
10 | c1cc2c(ncc3ncn([C@@H]4CCCN(C5COC5)C4)c32)[nH]1 [Example 71, (R)-1-(1-Oxetan-3-yl-piperidin-3-yl]-1,6-dihydro-1,3,5,6-tetraaza-as-indacene] | 264 | 307 | 378 | 1680
11 | N#CCCN1CCC(n2c(CC3CCCO3)nc3cnc4[nH]ccc4c32)CC1 (centres unmarked) [Example 813, 3-{4-[2-(Tetrahydro-furan-2-ylmethyl)-6H-1,3,5,6-tetraaza-as-indacen-1-yl]-piperidin-1-yl}-propionitrile] | 21.1 | 39.9 | 43 | 365
12 | C[C@@H](O)c1nc2cnc3[nH]ccc3c2n1[C@@H]1CCCN(C(=O)CC(F)(F)F)C1 [Example 785, 3,3,3-Trifluoro-1-{(R)-3-[2-((R)-1-hydroxy-ethyl)-6H-1,3,5,6-tetraaza-as-indacen-1-yl]-piperidin-1-yl}-propan-1-one] | 31.9 | 566 | 373 | 278
13 | O=C(Cc1nc2cnc3[nH]ccc3c2n1C1CCCOC1)NCC(F)F (racemic) [Example 973, N-(2,2-Difluoro-ethyl)-2-[1-(tetrahydro-pyran-3-yl)-1,6-dihydro-1,3,5,6-tetraaza-as-indacen-2-yl]-acetamide] | 23 | 130 | 152 | 215
14 | CC(C)OCCOCc1nc2cnc3[nH]ccc3c2n1C1CCN(CCC#N)CC1 [Example 843, 3-{4-[2-(2-Isopropoxy-ethoxymethyl)-6H-1,3,5,6-tetraaza-as-indacen-1-yl]-piperidin-1-yl}-propionitrile] | 84.2 | 169 | 80.8 | 631
15 | C[C@H](O)c1nc2cnc3[nH]ccc3c2n1[C@@H]1CCCN(C(=O)CC#N)C1 [Example 662, 3-{(R)-3-[2-((S)-1-Hydroxy-ethyl)-6H-1,2,3,5,6-tetraaza-as-indacen-1-yl]-piperidin-1-yl}-3-oxo-propionitrile] | 26.2 | 855 | 307 | 877
16 | CC(C)C(=O)N1CC(c2nc3cnc4[nH]ccc4c3n2C2CCN(CCC#N)CC2)C1 [Example 389, 3-{4-[2-(1-Isobutyryl-azetidin-3-yl)-6H-1,3,5,6-tetraaza-as-indacen-1-yl]-piperidin-1-yl}-propionitrile] | 11.1 | 48.3 | 34.3 | 181
17 | c1cc2c(ncc3nnn(C4CCOCC4)c32)[nH]1 [Example 467, 1-(Tetrahydro-pyran-4-yl)-1,6-dihydro-1,2,3,5,6-pentaaza-as-indacene] | 32.3 | 429 | 77.8 | 230
18 | c1ccc(CCN2CCC[C@@H](n3cnc4cnc5[nH]ccc5c43)C2)cc1 [Example 234, 1-((R)-1-Phenthyl-piperidin-3-yl)-1,6-dihydro-1,3,5,6-tetraaza-as-indacene] | 63.3 | 132 | 179 | 1760
19 | CC(=O)NCc1nc2cnc3[nH]ccc3c2n1C1CCN(CC(F)(F)F)CC1 [Example 920, N-{1-[1-(2,2,2-Trifluoro-ethyl)-piperidin-4-yl]-1,6-dihydro-1,3,5,6-tetraaza-as-indacen-2-ylmethyl}-acetamide] | 13 | 86.5 | 93 | 183

Molecules with a lower Ki (JAK1), results first:

Row | Ki (JAK1) [nM] | Ki (JAK3) [nM] | Ki (JAK2) [nM] | Ki (TYK2) [nM] | Structure (SMILES)
20 | 9.87 | 430 | 42.5 | 34.8 | CS(=O)(=O)[C@H]1CC[C@H](n2c(CO)nc3cnc4[nH]ccc4c32)CC1 [Example 651, Trans[1-(4-Methanesulfonyl-cyclohexyl)-1,6-dihydro-1,2,3,5,6-tetraaza-as-indacen-2-yl]-methanol]
21 | 9.26 | 109 | 11.7 | 58.6 | N#CCCn1cc2c(n1)CCC(n1cnc3cnc4[nH]ccc4c31)C2 (racemic) [Example 991, 3-[5-(6H-1,3,5,6-Tetraaza-as-indacen-1-yl)-4,5,6,7-tetrahydro-indazol-2-yl]-propionitrile]
22 | 8.63 | 31 | 103 | 387 | C[C@@H](O)c1nc2cnc3[nH]ccc3c2n1C1CCN(Cc2ncccc2F)CC1 [Example 682, (R)-1-{1-[1-(3-Fluoro-pyridin-2-ylmethyl)-piperidin-4-yl]-1,6-dihydro-1,2,3,5,6-tetraaza-as-indacen-2-yl}-ethanol]
23 | 7 | 133 | 22.2 | 61.4 | CS(=O)(=O)Nc1ccc(N2CCC(n3cnc4cnc5[nH]ccc5c43)CC2)nc1 [Example 211, N-[4-(6H-1,2,3,5,6-Tetraaza-as-indacen-1-yl)-3,4,5,6-tetrahydro-2H-[1,2]bipyridinyl-5′-yl]-methanesulfonamide]
24 | 6.6 | 88.1 | 18.3 | 54.5 | Cc1nc2cnc3[nH]ccc3c2n1[C@@H]1CC[C@@H](NCC(F)(F)F)C1 [Example 720, [(1R,3R)-3-(2-Methyl-6H-1,3,5,6-tetraaza-as-indacen-1-yl)-cyclopentyl]-(2,2,2-trifluoro-ethyl)-amine]
25 | 2.81 | 155 | 10.7 | 36.9 | Cc1nc2cnc3[nH]ccc3c2n1C1CCC(N2CCC(F)(F)CC2)CC1 (centres unmarked) [Example 767, 1-[4-(4,4-Difluoro-piperidin-1-yl)-cyclohexyl]-2-methyl-1,6-dihydro-1,3,5,6-tetraaza-as-indacene]
26 | 2.49 | 110 | 67.5 | 27.6 | C[C@@H](O)c1nc2cnc3[nH]ccc3c2n1[C@H]1CCCOC1 [Example 199, (R)-1-[(S)-1-(Tetrahydro-pyran-3-yl)-1,6-dihydro-1,2,3,5,6-tetraaza-as-indacen-2-yl]-ethanol]
27 | 2.14 | 23.2 | 10.3 | 10.2 | OCc1nc2cnc3[nH]ccc3c2n1C1CCN(CCF)CC1 [Example 508, {1-[1-(2-Fluoro-ethyl)-piperidin-4-yl]-1,6-dihydro-1,3,5,6-tetraaza-as-indacen-2-yl}-methanol]
28 | 2.09 | 12.9 | 54.4 | 96.7 | C[C@@H](O)c1nc2cnc3[nH]ccc3c2n1C1CCN(Cc2cnco2)CC1 [Example 898, (R)-1-[1-(1-Oxazol-5-ylmethyl-piperidin-4-yl)-1,6-dihydro-1,3,5,6-tetraaza-as-indacen-2-yl]-ethanol]
29 | 0.68 | 5.58 | 18.1 | 7.2 | C[C@@H](O)c1nc2cnc3[nH]ccc3c2n1C1CCNCC1(F)F (single isomer, unassigned) [Example 939]
